Reference: patent publication US20240287076A1, “COMPOUNDS FOR TARGETING DEGRADATION OF BRUTON'S TYROSINE KINASE” (BIOGEN MA INC., priority 2021, published 2024)

Target: T1, BTK (Homo sapiens, UniProt Q06187)
T1 construct: The GM01501.3 cell line endogenously expresses BTK with a HiBiT fusion tag via CRISPR knock-in at its C-terminal region; endogenous in cells; host or cells: GM01501.3 (GM01501 cells engineered by CRISPR knock-in of HiBiT at the BTK locus)
Experiment: BTK degradation assay using the HiBiT Method (Nano-Glo HiBiT Lytic Assay, GM01501.3 cells)
Format: cell-based
Settings: HiBiT Degradation on GM01501.3 BTK @ 6 hours
How it was run: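 CRISPR knock-in GM01501.3 cells expressing endogenous BTK with C-terminal HiBiT tag, treated 6 h at 37 °C with compounds, 11-point half-log titration from 10 μM top, duplicates. Remaining BTK quantified by Nano-Glo HiBiT lytic luminescence versus DMSO controls; DC50 reported.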

T1 sequence (Q06187 whole entry, the tested form may be a part): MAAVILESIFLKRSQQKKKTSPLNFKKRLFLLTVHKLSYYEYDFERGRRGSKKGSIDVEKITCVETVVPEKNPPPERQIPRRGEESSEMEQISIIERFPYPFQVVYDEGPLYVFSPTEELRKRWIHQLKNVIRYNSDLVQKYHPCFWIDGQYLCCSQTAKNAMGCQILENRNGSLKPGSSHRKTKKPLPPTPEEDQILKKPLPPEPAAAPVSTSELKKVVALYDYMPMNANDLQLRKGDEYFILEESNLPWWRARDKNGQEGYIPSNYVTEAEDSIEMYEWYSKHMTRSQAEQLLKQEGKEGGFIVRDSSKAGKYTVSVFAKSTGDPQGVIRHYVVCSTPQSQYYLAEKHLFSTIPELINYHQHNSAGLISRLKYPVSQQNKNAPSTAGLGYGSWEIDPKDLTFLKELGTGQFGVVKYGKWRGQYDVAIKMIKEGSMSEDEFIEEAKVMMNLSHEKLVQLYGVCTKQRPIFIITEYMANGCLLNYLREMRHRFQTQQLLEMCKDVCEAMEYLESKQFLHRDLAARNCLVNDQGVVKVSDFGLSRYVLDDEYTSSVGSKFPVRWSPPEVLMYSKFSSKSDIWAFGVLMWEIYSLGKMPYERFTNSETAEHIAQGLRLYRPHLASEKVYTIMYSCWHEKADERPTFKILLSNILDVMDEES

SMILES	DC50 [nM]
Cc1cc(-c2ncnn3cc(CCN4CCC(c5ccc6c(N7CCC(=O)NC7=O)nn(C)c6c5)CC4)cc23)ccc1CNC(=O)c1cnn(C(C)(C)C)c1 [Example 258, 1-(tert-butyl)-N-(4-(6-(2-(4-(3-(2,4-dioxotetrahydropyrimidin-1(2H)-yl)-1-methyl-1H-indazol-6-yl)piperidin-1-yl)ethyl)pyrrolo[2,1-f][1,2,4]triazin-4-yl)-2-methylbenzyl)-1H-pyrazole-4-carboxamide]	< 100
Cc1cc(-c2ncnn3cc(CCN4CCC(c5ccc6c(N7CCC(=O)NC7=O)nn(C)c6c5F)CC4)cc23)ccc1CNC(=O)c1noc(C(C)(C)C)n1 [Example 259, 5-(tert-butyl)-N-(4-(6-(2-(4-(3-(2,4-dioxotetrahydropyrimidin-1(2H)-yl)-7-fluoro-1-methyl-1H-indazol-6-yl)piperidin-1-yl)ethyl)pyrrolo[2,1-f][1,2,4]triazin-4-yl)-2-methylbenzyl)-1,2,4-oxadiazole-3-carboxamide]	< 100
Cc1cc(-c2ncnn3cc(CCN4CCC(c5ccc6c(N7CCC(=O)NC7=O)cnn6c5)CC4)cc23)ccc1CNC(=O)c1noc(C(C)(C)C)n1 [Example 270, 5-(tert-butyl)-N-(4-(6-(2-(4-(3-(2,4-dioxotetrahydropyrimidin-1(2H)-yl)pyrazolo[1,5-a]pyridin-6-yl)piperidin-1-yl)ethyl)pyrrolo[2,1-f][1,2,4]triazin-4-yl)-2-methylbenzyl)-1,2,4-oxadiazole-3-carboxamide]	< 100
Cc1cc(-c2ncnn3cc(CCN4CCC(c5ccc6c(N7CCC(=O)NC7=O)nn(C)c6c5)CC4)cc23)ccc1CNC(=O)c1cn(C(C)(C)C)nn1 [Example 271]	< 100
Cc1cc(-c2ncnn3cc(CCN4CCC(c5ccc6c(N7CCC(=O)NC7=O)noc6c5)CC4)cc23)ccc1CNC(=O)c1noc(C(C)(C)C)n1 [Example 272, 5-(tert-butyl)-N-(4-(6-(2-(4-(3-(2,4-dioxotetrahydropyrimidin-1(2H)-yl)benzo[d]isoxazol-6-yl)piperidin-1-yl)ethyl)pyrrolo[2,1-f][1,2,4]triazin-4-yl)-2-methylbenzyl)-1,2,4-oxadiazole-3-carboxamide]	> 1000
Cc1cc(-c2ncnn3cc(CCN4CCC(c5ccc6c(C7CCC(=O)NC7=O)nn(C)c6c5)CC4)cc23)ccc1CNC(=O)c1ccn(C(C)(C)C)n1 (centres unmarked) [Example 273, 1-(tert-butyl)-N-(4-(6-(2-(4-(3-(2,6-dioxopiperidin-3-yl)-1-methyl-1H-indazol-6-yl)piperidin-1-yl)ethyl)pyrrolo[2,1-f][1,2,4]triazin-4-yl)-2-methylbenzyl)-1H-pyrazole-3-carboxamide]	< 100
Cc1cc(-c2ncnn3cc(CCN4CCC(c5ccc6c7c(cccc57)C(=O)N6C5CCC(=O)NC5=O)CC4)cc23)ccc1CNC(=O)c1noc(C(C)(C)C)n1 (centres unmarked) [Example 274, 5-(tert-butyl)-N-(4-(6-(2-(4-(1-(2,6-dioxopiperidin-3-yl)-2-oxo-1,2-dihydrobenzo[cd]indol-6-yl)piperidin-1-yl)ethyl)pyrrolo[2,1-f][1,2,4]triazin-4-yl)-2-methylbenzyl)-1,2,4-oxadiazole-3-carboxamide]	< 100
Cc1cc(-c2ncnn3cc(CCCCN4CCC(c5ccc6c(N7CCC(=O)NC7=O)nn(C)c6c5F)CC4)cc23)ccc1CNC(=O)c1noc(C(C)(C)C)n1 [Example 278, 5-(tert-butyl)-N-(4-(6-(4-(4-(3-(2,4-dioxotetrahydropyrimidin-1(2H)-yl)-7-fluoro-1-methyl-1H-indazol-6-yl)piperidin-1-yl)butyl)pyrrolo[2,1-f][1,2,4]triazin-4-yl)-2-methylbenzyl)-1,2,4-oxadiazole-3-carboxamide]	< 100
Cc1cc(-c2ncnn3cc(CCCCN4CCC(c5ccc6c(N7CCC(=O)NC7=O)nn(C)c6c5)CC4)cc23)ccc1CNC(=O)c1cc(C(C)(C)C)no1 [Example 280, 3-(tert-butyl)-N-(4-(6-(4-(4-(3-(2,4-dioxotetrahydropyrimidin-1(2H)-yl)-1-methyl-1H-indazol-6-yl)piperidin-1-yl)butyl)pyrrolo[2,1-f][1,2,4]triazin-4-yl)-2-methylbenzyl)isoxazole-5-carboxamide]	< 100
Cc1cc(-c2ncnn3cc(CCCCN4CCC(c5ccc6c(N7CCC(=O)NC7=O)nn(C)c6c5)CC4)cc23)ccc1CNC(=O)c1cnn(C(C)(C)C)c1 [Example 281, 1-(tert-butyl)-N-(4-(6-(4-(4-(3-(2,4-dioxotetrahydropyrimidin-1(2H)-yl)-1-methyl-1H-indazol-6-yl)piperidin-1-yl)butyl)pyrrolo[2,1-f][1,2,4]triazin-4-yl)-2-methylbenzyl)-1H-pyrazole-4-carboxamide]	< 100
Cc1cc(-c2ncnn3cc(CCCCN4CCC(c5ccc6c(N7CCC(=O)NC7=O)nn(C)c6c5)CC4)cc23)ccc1CNC(=O)c1noc(C2(C(F)(F)F)CC2)n1 [Example 282, N-(4-(6-(4-(4-(3-(2,4-dioxotetrahydropyrimidin-1(2H)-yl)-1-methyl-1H-indazol-6-yl)piperidin-1-yl)butyl)pyrrolo[2,1-f][1,2,4]triazin-4-yl)-2-methylbenzyl)-5-(1-(trifluoromethyl)cyclopropyl)-1,2,4-oxadiazole-3-carboxamide]	< 100
Cc1cc(-c2ncnn3cc(CCCCN4CCC(c5ccc6c(N7CCC(=O)NC7=O)nn(C)c6c5)C(F)(F)C4)cc23)ccc1CNC(=O)c1noc(C(C)(C)C)n1 (centres unmarked) [Example 283, 5-(tert-butyl)-N-(4-(6-(4-(4-(3-(2,4-dioxotetrahydropyrimidin-1(2H)-yl)-1-methyl-1H-indazol-6-yl)-3,3-difluoropiperidin-1-yl)butyl)pyrrolo[2,1-f][1,2,4]triazin-4-yl)-2-methylbenzyl)-1,2,4-oxadiazole-3-carboxamide]	< 100
Cc1cc(-c2ncnn3cc(OCCN4CCC(c5ccc(NC6CCC(=O)NC6=O)cc5)CC4)cc23)ccc1CNC(=O)c1noc(C(C)(C)C)n1 (centres unmarked) [Example 288, 5-(tert-butyl)-N-(4-(6-(2-(4-(4-((2,6-dioxopiperidin-3-yl)amino)phenyl)piperidin-1-yl)ethoxy)pyrrolo[2,1-f][1,2,4]triazin-4-yl)-2-methylbenzyl)-1,2,4-oxadiazole-3-carboxamide]	< 100
Cc1cc(-c2ncnn3cc(OC4CC(CN5CCC(c6ccc7c(N8CCC(=O)NC8=O)nn(C)c7c6)CC5)C4)cc23)ccc1CNC(=O)c1noc(C(C)(C)C)n1 (centres unmarked) [Example 289, 5-(tert-butyl)-N-(4-(6-(3-((4-(3-(2,4-dioxotetrahydropyrimidin-1(2H)-yl)-1-methyl-1H-indazol-6-yl)piperidin-1-yl)methyl)cyclobutoxy)pyrrolo[2,1-f][1,2,4]triazin-4-yl)-2-methylbenzyl)-1,2,4-oxadiazole-3-carboxamide]	< 100

The remaining lines, values ahead:

DC50 [nM]	SMILES
< 100	Cc1cc(-c2ncnn3cc(CCN4CCN(c5ccc(NC6CCC(=O)NC6=O)cn5)CC4)cc23)ccc1CNC(=O)c1noc(C(C)(C)C)n1 (centres unmarked) [Example 260, 5-(tert-butyl)-N-(4-(6-(2-(4-(5-((2,6-dioxopiperidin-3-yl)amino)pyridin-2-yl)piperazin-1-yl)ethyl)pyrrolo[2,1-f][1,2,4]triazin-4-yl)-2-methylbenzyl)-1,2,4-oxadiazole-3-carboxamide]
< 100	Cc1cc(-c2ncnn3cc(CCN4CCN(c5ncc(NC6CCC(=O)NC6=O)cc5F)CC4)cc23)ccc1CNC(=O)c1noc(C(C)(C)C)n1 (centres unmarked) [Example 263, 5-(tert-butyl)-N-(4-(6-(2-(4-(5-((2,6-dioxopiperidin-3-yl)amino)-3-fluoropyridin-2-yl)piperazin-1-yl)ethyl)pyrrolo[2,1-f][1,2,4]triazin-4-yl)-2-methylbenzyl)-1,2,4-oxadiazole-3-carboxamide]
< 100	Cc1cc(-c2ncnn3cc(CCN4CCC(c5ccc(OC6CCC(=O)NC6=O)cn5)CC4)cc23)ccc1CNC(=O)c1noc(C(C)(C)C)n1 (centres unmarked) [Example 264, 5-(tert-butyl)-N-(4-(6-(2-(4-(5-((2,6-dioxopiperidin-3-yl)oxy)pyridin-2-yl)piperidin-1-yl)ethyl)pyrrolo[2,1-f][1,2,4]triazin-4-yl)-2-methylbenzyl)-1,2,4-oxadiazole-3-carboxamide]
< 100	Cc1cc(-c2ncnn3cc(CCN4CCC(c5ccn6c(N7CCC(=O)NC7=O)cnc6c5)CC4)cc23)ccc1CNC(=O)c1noc(C(C)(C)C)n1 [Example 269, 5-(tert-butyl)-N-(4-(6-(2-(4-(3-(2,4-dioxotetrahydropyrimidin-1(2H)-yl)imidazo[1,2-a]pyridin-7-yl)piperidin-1-yl)ethyl)pyrrolo[2,1-f][1,2,4]triazin-4-yl)-2-methylbenzyl)-1,2,4-oxadiazole-3-carboxamide]
< 100	Cc1cc(-c2ncnn3cc(CCN4CCC(c5ccc(NC6CCC(=O)NC6=O)cc5)C(F)(F)C4)cc23)ccc1CNC(=O)c1noc(C(C)(C)C)n1 (centres unmarked) [Example 275, 5-(tert-butyl)-N-(4-(6-(2-(4-(4-((2,6-dioxopiperidin-3-yl)amino)phenyl)-3,3-difluoropiperidin-1-yl)ethyl)pyrrolo[2,1-f][1,2,4]triazin-4-yl)-2-methylbenzyl)-1,2,4-oxadiazole-3-carboxamide]
< 100	Cc1cc(-c2ncnn3cc(CCCCN4CCN(c5ccc(C6CCC(=O)NC6=O)cn5)CC4)cc23)ccc1CNC(=O)c1noc(C(C)(C)C)n1 (centres unmarked) [Example 279, 5-(tert-butyl)-N-(4-(6-(4-(4-(5-(2,6-dioxopiperidin-3-yl)pyridin-2-yl)piperazin-1-yl)butyl)pyrrolo[2,1-f][1,2,4]triazin-4-yl)-2-methylbenzyl)-1,2,4-oxadiazole-3-carboxamide]
